This passage reports IC50 and zone of inhibition results from ChEMBL document CHEMBL1148079, “Zarzissine, a new cytotoxic guanidine alkaloid from the Mediterranean sponge Anchinoe paupertas” (J Nat Prod, 1994).

Experiment [1] can be described thus: Cytotoxicity against human NSCLC-N6 cells after 72 hrs by MTT assay. The class given is functional, cell-based. As to conditions: NSCLC-N6, 72 h. (In general: Formazan colour is commonly taken as a measure of viable cells.)
The next experiment relates to Staphylococcus aureus. The experiment is described as follows: Antimicrobial activity against Staphylococcus aureus at 100 ug after 18 hrs by paper disk agar diffusion method. The class given is functional. As to conditions: read-out: IZ. A general note: Agar diffusion results depend on both activity and mobility in agar.
The subject of the next experiment is P388. The experiment is described as follows: Cytotoxicity against mouse P388 cells after 72 hrs by MTT assay. It is filed as functional, cell-based. As to conditions: P388, 72 h.
Another experiment deals with Candida albicans. As to the kind of experiment: Antimicrobial activity against Candida albicans at 100 ug after 18 hrs by paper disk agar diffusion method. It is filed as functional. As to conditions: read-out: IZ.
The test system of another experiment is Candida tropicalis. As to the kind of experiment: Antimicrobial activity against Candida tropicalis at 100 ug after 18 hrs by paper disk agar diffusion method. It is filed as functional. As to conditions: read-out: IZ.
The test system of another experiment is KB. The experiment is described as follows: Cytotoxicity against human KB cells after 72 hrs by MTT assay. The class given is functional, cell-based.

Values after ≈ are worked out from the molar mass of the structure shown.

Consider `Nc1nc2cnncc2[nH]1`, for which the IC50 (in general, the concentration at which inhibition is half-maximal) is 10 µg/mL (≈ 74 µM) in experiment [1], 12 µg/mL (≈ 88.8 µM) in the experiment on P388 and 5 µg/mL (≈ 37 µM) in the experiment with KB. In addition, the zone of inhibition at 100 µg/disc with Staphylococcus aureus stood at 12 mm; in the experiment on Candida albicans, 10 mm; with Candida tropicalis, 11 mm.
As for `O=Cc1ccc(O)cc1` [4-HYDROXYBENZALDEHYDE], the zone of inhibition at 100 µg/disc in the experiment with Staphylococcus aureus was 8 mm; in the experiment on Candida albicans it was 7 mm; with Candida tropicalis, 7 mm.
